Data taken from patent publication US9884063B2, “Amido-substituted azole compounds” (Bayer Pharma Aktiengesellschaft, priority 2014, dated 2018).

Assays:
[1] = system: wildtype Wnt signaling cascade; test: HEK293 TOP Assay (Super TopFlash luciferase reporter, Wnt-3a stimulated); type: cell-based; settings: Homo sapiens, HEK293, 16 h, HEK293 TOP reporter cell line, Wnt-3a at EC50, 16 hours incubation, compound dilution series 50 μM to 15 nM
Method in brief: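 Compounds (50 μM down to 15 nM, 3.16-fold steps, in CAFTY buffer pH 7.4, 2 mM Ca2+, 0.01% BSA) tested in parallel on TOP and FOP HEK293 reporter lines to define selective wildtype Wnt inhibition. Pathway driven by recombinant human Wnt-3a applied at 2500–5 ng/ml in two-fold dilutions.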

TNKS2 = target: T1, TNKS2 (Homo sapiens, UniProt Q9H2K2); test: Modified TNKS2 Assay 3 (BPS kit #80578, biotin-NAD+, 96 well); type: biochemical; settings: human TNKS2, BPS kit #80578, 96 well
T1 sequence (Q9H2K2 1-1166): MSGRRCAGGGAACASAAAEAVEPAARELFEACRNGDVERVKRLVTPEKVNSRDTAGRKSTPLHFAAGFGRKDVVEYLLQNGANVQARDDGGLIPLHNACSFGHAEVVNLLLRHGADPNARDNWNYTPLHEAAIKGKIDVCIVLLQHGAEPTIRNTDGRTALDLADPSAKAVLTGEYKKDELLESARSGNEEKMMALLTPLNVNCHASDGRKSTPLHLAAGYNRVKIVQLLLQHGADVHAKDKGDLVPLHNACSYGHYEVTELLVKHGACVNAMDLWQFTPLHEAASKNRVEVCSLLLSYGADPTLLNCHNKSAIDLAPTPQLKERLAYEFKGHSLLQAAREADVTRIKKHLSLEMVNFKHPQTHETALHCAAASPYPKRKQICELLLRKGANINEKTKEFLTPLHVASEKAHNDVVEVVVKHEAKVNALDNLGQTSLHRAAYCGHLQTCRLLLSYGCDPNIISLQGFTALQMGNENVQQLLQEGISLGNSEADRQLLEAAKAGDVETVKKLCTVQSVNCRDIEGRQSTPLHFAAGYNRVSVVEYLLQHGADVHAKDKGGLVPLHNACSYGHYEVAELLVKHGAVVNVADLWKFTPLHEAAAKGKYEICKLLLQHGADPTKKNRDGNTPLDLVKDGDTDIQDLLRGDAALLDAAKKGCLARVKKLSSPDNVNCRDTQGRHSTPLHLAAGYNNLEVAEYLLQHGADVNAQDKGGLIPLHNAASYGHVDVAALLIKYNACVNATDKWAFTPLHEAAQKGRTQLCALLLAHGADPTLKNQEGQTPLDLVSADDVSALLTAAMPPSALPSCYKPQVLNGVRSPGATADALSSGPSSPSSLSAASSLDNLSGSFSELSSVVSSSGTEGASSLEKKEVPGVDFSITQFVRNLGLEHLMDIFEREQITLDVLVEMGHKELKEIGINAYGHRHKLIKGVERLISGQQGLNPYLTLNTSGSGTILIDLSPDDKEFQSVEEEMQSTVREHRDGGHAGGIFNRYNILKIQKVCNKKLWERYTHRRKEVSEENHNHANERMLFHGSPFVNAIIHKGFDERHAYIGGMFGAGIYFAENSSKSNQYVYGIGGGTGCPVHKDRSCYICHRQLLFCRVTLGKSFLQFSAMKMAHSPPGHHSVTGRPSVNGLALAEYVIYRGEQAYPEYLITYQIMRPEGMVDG
Method in brief: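 Commercial kit assay measuring TNKS2-catalysed incorporation of biotin-labelled NAD+ into a protein substrate, detected by streptavidin-HRP chemiluminescence. Run per manufacturer's protocol; IC50 is the concentration halving the normalised signal.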

Row | Structure (SMILES) | IC50 [1] [µM] | IC50 (TNKS2) [µM]
1 | O=C(Nc1ccc(NC(=O)c2[nH]cnc2C(=O)NCCN2CCCCC2)cc1F)c1ccc(F)cc1Cl [Example 74, N^5-{4-[(2-chloro-4-fluorobenzoyl)amino]-3-fluorophenyl}-N^4-[2-(piperidin-1-yl)ethyl]-1H-imidazole-4,5-dicarboxamide] | 0.07 | < 0.0005
2 | O=C(Nc1ccc(NC(=O)c2[nH]cnc2C(=O)NCCN2CCCCC2)cc1F)c1ccccc1Cl [Example 82, N^5-{4-[(2-chlorobenzoyl)amino]-3-fluorophenyl}-N^4-[2-(piperidin-1-yl)ethyl]-1H-imidazole-4,5-dicarboxamide] | 0.09 | < 0.0005
3 | CNC(=O)c1nc[nH]c1C(=O)Nc1ccc(NC(=O)c2ccc(F)cc2Cl)c(OC)c1 [Example 95, N^5-{4-[(2-chloro-4-fluorobenzoyl)amino]-3-methoxyphenyl}-N^4-methyl-1H-imidazole-4,5-dicarboxamide] | 0.27 | 0.06
4 | COc1cc(NC(=O)c2[nH]cnc2C(=O)NCCN2CCCCC2)ccc1NC(=O)c1ccc(F)cc1Cl [Example 97, N^5-{4-[(2-chloro-4-fluorobenzoyl)amino]-3-methoxyphenyl}-N^4-[2-(piperidin-1-yl)ethyl]-1H-imidazole-4,5-dicarboxamide] | 0.08 | 0.02
5 | CNC(=O)c1nc[nH]c1C(=O)Nc1ccc(NC(=O)c2ccccc2Cl)c(OC)c1 [Example 99, N^5-{4-[(2-chlorobenzoyl)amino]-3-methoxyphenyl}-N^4-methyl-1H-imidazole-4,5-dicarboxamide] | 0.54 | 0.09
6 | COc1cc(NC(=O)c2[nH]cnc2C(=O)NCCN2CCCCC2)ccc1NC(=O)c1ccccc1Cl [Example 101, N^5-{4-[(2-chlorobenzoyl)amino]-3-methoxyphenyl}-N^4-[2-(piperidin-1-yl)ethyl]-1H-imidazole-4,5-dicarboxamide] | 0.22 | 0.01
7 | NC(=O)c1nc[nH]c1C(=O)Nc1ccc(NC(=O)c2ccccc2Cl)cc1 [Example 120, N^5-{4-[(2-chlorobenzoyl)amino]phenyl}-1H-imidazole-4,5-dicarboxamide] | 1.2 | 0.14
8 | O=C(Nc1ccc(NC(=O)c2nc[nH]c2C(=O)N2CC3(COC3)C2)cc1)c1ccc(F)cc1Cl [Example 145, N-{4-[(2-chloro-4-fluorobenzoyl)amino]phenyl}-5-(2-oxa-6-azaspiro[3.3]hept-6-ylcarbonyl)-1H-imidazole-4-carboxamide] | 0.29 | > 0.5
9 | CC1CCCN(CCNC(=O)c2[nH]cnc2C(=O)Nc2ccc(NC(=O)c3ccccc3Cl)cc2)C1 (stereo not drawn) [Example 210, N^4-{4-[(2-chlorobenzoyl)amino]phenyl}-N^5-[2-(3-methylpiperidin-1-yl)ethyl]-1H-imidazole-4,5-dicarboxamide] | 0.13 | 0.003
10 | O=C(Nc1ccc(NC(=O)c2nc[nH]c2C(=O)NCCN2CCC(F)(F)CC2)cc1)c1ccccc1Cl [Example 214, N^4-{4-[(2-chlorobenzoyl)amino]phenyl}-N^5-[2-(4,4-difluoropiperidin-1-yl)ethyl]-1H-imidazole-4,5-dicarboxamide] | 1.25 | 0.07
11 | O=C(Nc1ccc(NC(=O)c2nc[nH]c2C(=O)NCCN2CCC(F)(F)CC2)cc1)c1ccc(F)cc1Br [Example 215, N^4-{4-[(2-bromo-4-fluorobenzoyl)amino]phenyl}-N^5-[2-(4,4-difluoropiperidin-1-yl)ethyl]-1H-imidazole-4,5-dicarboxamide] | 0.4 | 0.12
12 | O=C(Nc1ccc(NC(=O)c2ocnc2C(=O)NCCN2CCCC(F)C2)cc1)c1ccc(F)cc1Cl (stereo not drawn) [Example 220, N^5-{4-[(2-chloro-4-fluorobenzoyl)amino]phenyl}-N^4-[2-(3-fluoropiperidin-1-yl)ethyl]-1,3-oxazole-4,5-dicarboxamide] | 0.69 | 0.1

Further lines, results first:

Row | IC50 [1] [µM] | IC50 (TNKS2) [µM] | Structure (SMILES)
13 | 0.8 | 0.36 | CNC(=O)c1[nH]c(C)nc1C(=O)Nc1ccc(NC(=O)c2ccc(F)cc2Cl)cc1 [Example 65, N^4-{4-[(2-chloro-4-fluorobenzoyl)amino]phenyl}-N^5,2-dimethyl-1H-imidazole-4,5-dicarboxamide]
14 | 0.19 | 0.19 | CCc1nc(C(=O)Nc2ccc(NC(=O)c3ccc(F)cc3Cl)cc2)c(C(=O)NCCN(C)C)[nH]1 [Example 69, N^4-{4-[(2-chloro-4-fluorobenzoyl)amino]phenyl}-N^5-[2-(dimethylamino)ethyl]-2-ethyl-1H-imidazole-4,5-dicarboxamide]
15 | 0.13 | 0.02 | CCc1nc(C(=O)Nc2ccc(NC(=O)c3ccc(F)cc3Cl)cc2)c(C(=O)NCCN2CCCCC2)[nH]1 [Example 70, N^4-{4-[(2-chloro-4-fluorobenzoyl)amino]phenyl}-2-ethyl-N^5-[2-(piperidin-1-yl)ethyl]-1H-imidazole-4,5-dicarboxamide]
16 | 5 | > 0.5 | CC(C)c1nc(C(=O)Nc2ccc(NC(=O)c3ccc(F)cc3Cl)cc2)c(C(=O)NCCN2CCCCC2)[nH]1 [Example 108, N^4-{4-[(2-chloro-4-fluorobenzoyl)amino]phenyl}-2-isopropyl-N^5-[2-(piperidin-1-yl)ethyl]-1H-imidazole-4,5-dicarboxamide]
17 | 0.26 | > 0.5 | O=C(Nc1ccc(NC(=O)c2nc[nH]c2C(=O)NCC2CC2)cc1)c1ccc(F)cc1Cl [Example 128, N^4-{4-[(2-chloro-4-fluorobenzoyl)amino]phenyl}-N^5-(cyclopropylmethyl)-1H-imidazole-4,5-dicarboxamide]
18 | 0.14 | 0.43 | O=C(Nc1ccc(NC(=O)c2nc[nH]c2C(=O)NCCO)cc1)c1ccc(F)cc1Cl [Example 132, N^4-{4-[(2-chloro-4-fluorobenzoyl)amino]phenyl}-N^5-(2-hydroxyethyl)-1H-imidazole-4,5-dicarboxamide]
19 | 0.64 | 0.51 | CC(C)[C@@H](C)NC(=O)c1[nH]cnc1C(=O)Nc1ccc(NC(=O)c2ccc(F)cc2Cl)cc1 [Example 134, N^4-{4-[(2-chloro-4-fluorobenzoyl)amino]phenyl}-N^5-[(2R)-3-methylbutan-2-yl]-1H-imidazole-4,5-dicarboxamide]
20 | 0.26 | 0.15 | CCNC(=O)c1[nH]cnc1C(=O)Nc1ccc(NC(=O)c2ccc(F)cc2Cl)cc1 [Example 138, N^4-{4-[(2-chloro-4-fluorobenzoyl)amino]phenyl}-N^5-ethyl-1H-imidazole-4,5-dicarboxamide]
21 | 0.36 | 0.35 | O=C(Nc1ccc(NC(=O)c2nc[nH]c2C(=O)NCC(F)F)cc1)c1ccc(F)cc1Cl [Example 139, N^4-{4-[(2-chloro-4-fluorobenzoyl)amino]phenyl}-N^5-(2,2-difluoroethyl)-1H-imidazole-4,5-dicarboxamide]
22 | 0.12 | 0.06 | O=C(Nc1ccc(NC(=O)c2nc[nH]c2C(=O)N2CCC2)cc1)c1ccc(F)cc1Cl [Example 142, 5-(azetidin-1-ylcarbonyl)-N-{4-[(2-chloro-4-fluorobenzoyl)amino]phenyl}-1H-imidazole-4-carboxamide]
23 | 7.5 | 0.42 | CC(C)(N)CNC(=O)c1ncoc1C(=O)Nc1ccc(NC(=O)c2ccc(F)cc2Cl)cc1 [Example 219, N^4-(2-amino-2-methylpropyl)-N^5-{4-[(2-chloro-4-fluorobenzoyl)amino]phenyl}-1,3-oxazole-4,5-dicarboxamide]
24 | 0.82 | 0.49 | O=C(Nc1ccc(NC(=O)c2ocnc2C(=O)NCCN2CC[C@H](F)C2)cc1)c1ccc(F)cc1Cl [Example 221, N^5-{4-[(2-chloro-4-fluorobenzoyl)amino]phenyl}-N^4-{2-[(3S)-3-fluoropyrrolidin-1-yl]ethyl}-1,3-oxazole-4,5-dicarboxamide]
